According to patent US20100248390A1, “COMPOSITIONS AND METHODS FOR IDENTIFYING LIGANDS OF ODORANT RECEPTORS” (DUKE UNIVERSITY, priority 2009, published 2010):

Tests used:
Assay in all cases: CRE-luciferase assay of odorant receptor activation (Dual-Glo, Hana3A cells, RTP1S), dose-response EC50
Format in all cases: cell-based
[1] = test system: mouse odorant receptors (ORs); conditions: for log EC50, MOR203-1: receptor MOR203-1; for log EC50, MOR261-1: receptor MOR261-1
Excerpt: (§1) Cloning mouse and human ORs. […] OR open reading frames were amplified from genomic DNA using proofreading KOD DNA polymerase (Toyobo/Novagen) and subcloned into pCI expression vectors (Promega) containing the first 20 residues of human rhodopsin (Rho tag). The sequences of the cloned receptors were verified by sequencing (3100 Genetic Analyzer, ABI Biosystems). Immunocytochemistry and FACS analysis. […] For FACS analysis, phycoerythrin (PE)-conjugated anti-mouse IgG (Jackson Immunologicals) was used. In order to monitor the transfection efficiency, Green Fluorescent Protein (GFP) was co-transfected with the OR. The intensity of receptor cell surface expression was calculated as the ratio of PE and GFP expression. 7-aminoactinomycin D (Calbiochem) was added before flow cytometry to mark dead cells which were excluded from the analysis. The gate and mean of PE positive cells was normalized by GFP values. Luciferase assay. […] Odorant receptor activation leads to an increase in intracellular cAMP; CRE-luciferase (Stratagene) was used to measure this change. […] Hana3A cells were plated on poly-D-lysine-coated 96-well plates (BioCoat; Becton Dickinson). […] For each 96-well plate transfected, 1 μg of CRE-Luc, 1 μg of pRL-SV40, 5 μg of odorant receptor plasmid, and 1 μg of RTP1S was used. Approximately 24 hours post transfection, the medium was replaced with CD293 chemically defined medium (Gibco) and the plate was incubed for 30 min at 37° C. The medium was then replaced with 25 μL of odorant solution diluted in CD293 and the plate was incubated for 4 hrs at 37° C. and 5% CO2. The manufacturer's protocols for measuring luciferase and Renilla luciferase activities was followed. […] All luminescence values were divided by the Renilla Luciferase activity to control for transfection efficiency in a given well. Normalized luciferase activity was calculated using the formula (LN−Lmin)/(Lmax−Lmin), where LN is the luminescence of firefly luciferase in response to the odorant, Lmin is the minimum luciferase value on a plate or set of plates, and Lmax is the maximum luciferase value on a plate or set of plates. The data was analyzed using Microsoft Excel and GraphPad Prism 4. Screening procedure. The entire OR library was stimulated with eight separate odorant mixtures formed from 93 odorants (FIG. 12). […] A comparison between the 93 individual odorants at a 100 μM dose and a no-odor control was performed for all 290 […]. Each comparison was performed in triplicate; statistical significance was assessed by t-test (uncorrected for multiple comparisons). […] A single odorant was used on each plate to avoid cross-contamination, and each OR odorant dose was tested at least three times. The data was fit to a sigmoidal curve. […] Physicochemical descriptors. […] Receptor descriptors. […] Correlations between descriptors and responses. […] All odorants for which there were fewer than 3 responsive receptors were eliminated. For all remaining odorant pairs the Pearson correlation between EC50 vectors and the Euclidean distance between descriptor vectors was calculated. The Pearson correlation between these two sets of distances was then measured. Optimizing descriptors. […] In this method one begins with an empty set of descriptors. Each descriptor is combined with the previous set of descriptors and correlation values are computed for all of these candidate sets of descriptors. To reduce overfitting, the data is randomly divided into ten subsets and correlation values are computed for each leave-one out subset. The final correlation coefficient for each set of descriptors is the average of the correlation coefficients for each subset. The set with the best correlation coefficient then becomes the new set of descriptors and the process is repeated until the correlation coefficient increases by less than 0.004 in three consecutive iterations.

[2] = molecular target: T1, human odorant receptors (ORs) (Homo sapiens, UniProt Q8NGJ5); conditions: receptor OR51L1; read-out: log EC50 of odorant at OR51L1 (0 = no response) (converted)
T1 construct: OR open reading frames were amplified from genomic DNA; expressed in transfected cells; host or cells: Hana3A cells, co-transfected with RTP1S, CRE-luciferase and pRL-SV40
T1 sequence (Q8NGJ5 1-315): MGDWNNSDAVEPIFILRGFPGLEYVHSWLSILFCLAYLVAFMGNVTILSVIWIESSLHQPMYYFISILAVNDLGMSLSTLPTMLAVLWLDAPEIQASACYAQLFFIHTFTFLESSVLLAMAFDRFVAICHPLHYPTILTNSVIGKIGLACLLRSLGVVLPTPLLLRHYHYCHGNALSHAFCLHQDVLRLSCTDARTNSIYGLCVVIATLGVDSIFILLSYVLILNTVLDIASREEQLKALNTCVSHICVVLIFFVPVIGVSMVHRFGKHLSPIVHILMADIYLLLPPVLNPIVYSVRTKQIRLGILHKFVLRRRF
Excerpt: as §1, with “For all remaining odorant pairs the Pearson correlation between EC50 vectors and the Euclidean distance between descriptor vectors was calculated.” left out, “subset.” for “subset. The set with the best correlation coefficient then becomes the new set of descriptors and the process is repeated until the correlation coefficient increases by less than 0.004 in three consecutive iterations.”
(§2) The entire OR library was stimulated with one of 8 odorant mixtures drawn from 93 odorants chosen to represent diverse functional groups, sizes, and structures (Table 3). Each mixture was applied at five different concentrations. […] The 93 odorants were then applied individually at 100 μM to the 290 mixture-responsive ORs.

[3] = molecular target: T2, human odorant receptors (ORs) (Homo sapiens, UniProt O76002); conditions: receptor OR2J2; 0 = no response; read-out: log EC50, OR2J2 (converted)
T2 construct: OR open reading frames were amplified from genomic DNA; expressed in transfected cells; host or cells: Hana3A cells, co-transfected with RTP1S, CRE-luciferase and pRL-SV40
T2 sequence (O76002 1-312): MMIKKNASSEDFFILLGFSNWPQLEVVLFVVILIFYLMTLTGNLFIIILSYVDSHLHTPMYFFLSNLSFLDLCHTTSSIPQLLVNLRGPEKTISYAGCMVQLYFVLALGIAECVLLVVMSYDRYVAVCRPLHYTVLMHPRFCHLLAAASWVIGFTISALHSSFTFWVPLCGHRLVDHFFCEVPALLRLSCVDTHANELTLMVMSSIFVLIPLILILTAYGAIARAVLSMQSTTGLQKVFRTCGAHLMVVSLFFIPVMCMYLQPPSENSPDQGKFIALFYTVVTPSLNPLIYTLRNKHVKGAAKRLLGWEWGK
Excerpt: as §1, with “For all remaining odorant pairs the Pearson correlation between EC50 vectors and the Euclidean distance between descriptor vectors was calculated.” left out, “subset.” for “subset. The set with the best correlation coefficient then becomes the new set of descriptors and the process is repeated until the correlation coefficient increases by less than 0.004 in three consecutive iterations.”
as §2

[4] = molecular target: T3, human odorant receptors (ORs) (Homo sapiens, UniProt Q9Y3N9); conditions: receptor OR2W1; 0 = no response; read-out: log EC50, OR2W1 (converted)
T3 construct: OR open reading frames were amplified from genomic DNA; expressed in transfected cells; host or cells: Hana3A cells, co-transfected with RTP1S, CRE-luciferase and pRL-SV40
T3 sequence (Q9Y3N9 1-320): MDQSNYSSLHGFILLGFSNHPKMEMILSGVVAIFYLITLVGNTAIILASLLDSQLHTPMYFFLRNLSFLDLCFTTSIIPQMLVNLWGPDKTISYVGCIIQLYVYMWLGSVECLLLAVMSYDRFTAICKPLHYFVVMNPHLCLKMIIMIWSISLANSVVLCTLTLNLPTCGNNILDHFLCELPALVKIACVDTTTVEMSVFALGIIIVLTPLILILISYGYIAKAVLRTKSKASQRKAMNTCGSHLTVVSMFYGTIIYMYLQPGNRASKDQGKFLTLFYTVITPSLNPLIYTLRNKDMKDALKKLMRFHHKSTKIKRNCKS
Excerpt: as §1, with “For all remaining odorant pairs the Pearson correlation between EC50 vectors and the Euclidean distance between descriptor vectors was calculated.” left out, “subset.” for “subset. The set with the best correlation coefficient then becomes the new set of descriptors and the process is repeated until the correlation coefficient increases by less than 0.004 in three consecutive iterations.”
as §2

[5] = molecular target: T4, human odorant receptors (ORs) (Homo sapiens, UniProt Q8TCB6); conditions: receptor OR51E1
T4 construct: OR open reading frames were amplified from genomic DNA; expressed in transfected cells; host or cells: Hana3A cells, co-transfected with RTP1S, CRE-luciferase and pRL-SV40
T4 sequence (Q8TCB6 1-318): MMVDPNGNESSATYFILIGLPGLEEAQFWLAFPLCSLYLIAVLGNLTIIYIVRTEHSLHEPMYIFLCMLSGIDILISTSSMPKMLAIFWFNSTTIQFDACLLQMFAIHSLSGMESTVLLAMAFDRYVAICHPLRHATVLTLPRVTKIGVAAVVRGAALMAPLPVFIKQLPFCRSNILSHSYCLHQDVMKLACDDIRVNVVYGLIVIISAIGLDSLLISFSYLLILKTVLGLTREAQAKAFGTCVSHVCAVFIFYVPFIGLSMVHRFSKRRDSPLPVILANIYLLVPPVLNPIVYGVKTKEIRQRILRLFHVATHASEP
Excerpt: as §1, with “For all remaining odorant pairs the Pearson correlation between EC50 vectors and the Euclidean distance between descriptor vectors was calculated.” left out, “subset.” for “subset. The set with the best correlation coefficient then becomes the new set of descriptors and the process is repeated until the correlation coefficient increases by less than 0.004 in three consecutive iterations.”
as §2

Row | SMILES | log EC50 of odorant at MOR1-1 (0 = no response) ([1]; receptor MOR1-1) | EC50 [2] [µM] | log EC50, MOR203-1 ([1]; 0 = no response) | log EC50, MOR261-1 ([1]; 0 = no response) | log EC50, MOR268-1 ([1]; receptor MOR268-1, 0 = no response) | EC50 [3] [µM] | EC50 [4] [µM] | log EC50 (Table 4 value), OR51E1 [5]
1 | CCCCCC(=O)O [Hexanoic acid] | −4.625 | 147 | – | – | – | – | – | –
2 | CCCCCCCCO [1-Octanol] | – | – | −3.563 | −5.192 | −3.63 | 69.2 | 7.45 | –
3 | CCCCCCCCCO [1-Nononol] | – | – | −4.456 | −4.914 | – | 69.2 | 23.4 | –
4 | CCCCOC(=O)C(C)OC(=O)CCC (stereo not drawn) [Butyl butyryl actate] | – | – | – | – | – | – | – | −3.473
